Consider one compound from patent publication US20260256811A1, “Humoral Immune Activators for the Treatment of Humoral Immunosuppressed Pathologies, Cancer and Infectious Disease and Humoral Immune Suppressors for the Treatment of Inflammatory Diseases” (Navrogen, Inc., priority 2022, published 2026).

Bounds are passed on as bounds.

For orientation: viability means the share of living cells, or the viability signal relative to a control. By half-life is commonly meant the time needed for the level to fall by half in the phase considered. The microsomal CLint is a measure of how fast metabolising enzymes remove a compound, apart from limits set by blood flow. Read a high microsomal CLint as faster metabolism.

Series [1] deals with OV-CD20 tumor cells. As to the kind of experiment: AICC by human primary NK cells. It is filed as cell-based. The note with it: absence of antibody, vs vehicle. The protocol:
(§1) Briefly, 5,000 human breast carcinoma (SKBR3 or OE19) or OV-CD20 target cells were plated in black 96-well microplates in R7.5 media for 48 hours. Wells were washed and 50,000 PBMC, NK or SPL effector cells were added in R1 assay media with or without a targeting test antibody and 25 or 50 μM of Compound 2. Vehicle is the solvent that Compound 2 is dissolved in. For assays employing SKBR3 human breast cancer or OE19 esophageal adenocarcinoma cell lines, 2.5 μg/mL of the HER2-targeting trastuzumab test antibody was used for ADCC assays. For OV-CD20 assays, 2.5 μg/mL of the CD20-targeting rituximab test antibody was used for ADCC assays. Cultures were incubated for 24 hours at 37° C. in 5% CO2 in triplicate. After incubation, culture supernatants were harvested for cytokine analysis and wells were washed with phosphate buffered saline and adhered target cell viability was quantified via Cell Titer-GLO (Promega) using a Varioskan plate reader. […] ADCC data was graphed as percent killing of antibody treated with Compound 2 or vehicle vs. cultures not treated with antibody. […] AICC results were graphed as percent killing by Compound 2 vs vehicle only treated cultures. […] Experiments represent a minimum of triplicate wells.

Series [2] relates to SARS-COV-2 virus. As to the kind of experiment: Viability of human PBMCs exposed to SARS-COV-2 virus. It counts as cell-based. The note with it: Severe acute respiratory syndrome coronavirus 2, PBMC, 72 h, read-out: PBMC viability after SARS-COV-2 exposure. An excerpt:
NK cells have been previously reported to be capable of killing virally infected cells (Bjorkstrom N K, et al. Nat Reviews Immunol 22:112-123, 2022). In particular, previous studies have shown that the SARS-COV-2 virus can infect human PBMCs and this infection can be lethal to overall PBMC survival (Manunta MDI, et al. Scientific Reports 11:4904-4916, 2021). To test the ability of CD16a FcR activating small molecular weight agents described here to activate effector cells within PBMCs that in turn can kill virally infected PBMC sib cells and reduce viral load, Compound 2 was tested against human PBMCs exposed to SARS-COV-2 virus. Briefly, IL2-activated PBMCs grown in RPMI media with 10% heat inactivated FBS (R10) were plated at 100,000 cells/well in 96 well U-bottom microplates. Next, […] viral titers (previously determined by plaque forming units, PFU) were added to appropriate wells with or without 25 μM of Compound 2. Cultures were incubated for 72 hours at 37° C. in 5% CO2. Plates were centrifuged and supernatants collected for future cytokine and viral titer analysis. Cells were resuspended in RPMI plus 10% FBS, transferred to 96-well black microplates and tested for viability using Cell Titer-Glo (Promega) and read for viability on a 96-well microplate reader. […] Experiments represent a minimum of triplicate wells.

For series [3], the system named is CD16a FcR. As to the kind of experiment: Cytokine and granzyme ELISA on supernatants of primary human effector cells. It is filed as cell-based. The protocol:
as §1
(In an ELISA, binding on a coated surface is turned into a signal by an enzyme label.)

A short description of series [4]: Metabolic stability in mouse liver microsomes. It counts as in vitro ADME. The note with it: mouse, microsomes. The protocol:
(§2) We next tested Compounds 2, 26, 27 and 33 for metabolic stability using human and mouse microsomes. For each test compound, samples were diluted a final concentration of 2 μg/mL in 25 mM potassium phosphate buffer with liver microsomes of each species at a final concentration of 0.5 mg/mL. The enzyme reaction was initiated by the addition of NADPH reagent at a final concentration of 1 mM. For negative control samples, NADPH reagent was not added. Samples were incubated at 37° C. on a 50-RPM orbital shaker, and an aliquot was removed at pre-determined timepoints at 0, 5, 10, 15, 30, and 60 minutes. Samples were then precipitated with three volume of acetonitrile containing propranolol as an internal standard, and centrifuged for 10 min at 2000 g then analyzed by LC/MS/MS. Note that compounds undergo only Phase I metabolism in liver microsomes in the presence of NADPH cofactors. Data interpretation of results are based on percent parent compound remaining relative to 0-minute incubation samples, from which the elimination half-life is calculated based on the natural log of % compound remaining vs. time plot. The following parameters were calculated to estimate the compound's in vitro metabolic stability: Cmp=concentration of microsomal proteins (mg/mL); t1/2=the half-life (min), where t1/2 is equal to 0.693/slope; CLint=the intrinsic hepatic clearance (μL/min/mg), where CLint is equal to 0.693/(t1/2×Cmp).
Background: Liver microsomes are vesicles of endoplasmic reticulum, rich in cytochrome P450 enzymes.

The target in series [5] is T1, CD16a-158F FcR (Homo sapiens, UniProt P08637).
T1 construct: host or cells: Jurkat (JKT-CD16a luciferase reporter line)
As to the kind of experiment: Jurkat-CD16a-158F-luciferase (JKT-CD16a) reporter bioassay. It counts as cell-based.

For series [6], the system named is CD16a FcR. As to the kind of experiment: Cytokine ELISA on culture media of JKT-CD16a and parental Jurkat cells. The note with it: 10 μM, 18 hours, ELISA of supernatant. It is filed as cell-based, human.
The nature of series [7]: Metabolic stability in human liver microsomes. The note with it: human, microsomes. It counts as in vitro ADME. The protocol:
as §2

Series [8] concerns tumor target cells. As to the kind of experiment: ADCC and cytokine production by mouse splenocyte (SPL) effector cells. It is filed as cell-based. The note with it: 25 or 50 μM plus targeting antibody, 24 hours; vs antibody alone (vehicle). As for the experimental part: as §1
Series [9] is described as follows: Tolerability and serum TNFα in athymic nude mice, i.v. dosing. It is filed as in vivo. The protocol: To determine the ability of Compound 2 to activate immune-effector cells in vivo, we administered 7 mg/kg of Compound 2 or similar volumes of vehicle (ethanol) daily for 5 days (day 1-5) and isolated total serum on day 11 to measure for immune-effector cell activation markers. […] Experiments represent a minimum of triplicate wells.

The test system of series [10] is SKBR3, OE19 or OV-CD20 target cells. As to the kind of experiment: ADCC by human PBMC and NK effector cells against tumor target cells. It is filed as cell-based. The note with it: 25 or 50 μM plus 2.5 μg/mL trastuzumab or rituximab, 24 hours; vs antibody alone (vehicle). The protocol: as §1

T1 sequence (P08637 17-254): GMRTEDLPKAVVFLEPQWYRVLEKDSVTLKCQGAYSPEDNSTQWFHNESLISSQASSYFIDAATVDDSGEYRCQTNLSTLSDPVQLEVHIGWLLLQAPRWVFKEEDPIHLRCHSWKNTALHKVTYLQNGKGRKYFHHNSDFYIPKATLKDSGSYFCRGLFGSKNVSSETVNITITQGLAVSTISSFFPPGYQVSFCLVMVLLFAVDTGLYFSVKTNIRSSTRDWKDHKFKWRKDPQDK
T1 sequence (P20963 22-164 partner): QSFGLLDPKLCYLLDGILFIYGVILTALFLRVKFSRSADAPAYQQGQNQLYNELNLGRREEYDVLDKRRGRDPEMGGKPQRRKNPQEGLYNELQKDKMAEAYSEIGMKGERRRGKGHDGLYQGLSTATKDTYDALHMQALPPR

Consider `CC(C)=CCC[C@@H](C)[C@H]1CC[C@@]2(C)C3CC[C@H]4C(C)(C)[C@@H](O)CC[C@@]45C[C@@]35CC[C@]12C` (some centres unmarked) [Compound 2], for which the “NK cell killing of OV-CD20 tumor cells via AICC” value in series [1] was “enabled NK cell killing of OV-CD20 tumor cells”. Besides, the viability at 25 µM in series [2] was 100%. Further, the “TNFα, IFNγ, GM-CSF and granzyme B production by NK cells” value in series [3] (absence of antibody, ELISA of supernatants) was “produced and secreted”. The “time of exposure to activation and cytokine production” value in series [3] (time course analysis) was no more than 30 min. In series [4], this compound had a half-life at 2 μg/mL of 1.88 h and a microsomal CLint at 2 μg/mL of 12.3 µL/min/mg. Moreover, the “JKT-CD16a activation (luciferase RLU) in the presence of IgG” value in series [5] (OV-CD20 target cells plus 2.5 μg/mL rituximab, 12-18 hours, vs vehicle or no compound) was “significant enhancement”. The “JKT-CD16a-158F FcR activation (luciferase RLU) in the absence of IgG antibody” value in series [5] (OV-CD20 target cells without antibody, lower levels than with IgG) is “stimulated”. In addition, in series [6], the “IFNγ and TNFα production by JKT-CD16a-158F cells” value is listed as “both cytokines were produced”; the “IFNγ and TNFα production by parental Jurkat cells (CD16a-null)” value was “little to no cytokine production”. Also, in series [7], the half-life at 2 μg/mL is 1.18 h and the microsomal CLint at 2 μg/mL was determined as 19.7 µL/min/mg. In [8], the “mouse (SPL cells) effector cell killing of target cells through ADCC” value is “enhance”. The “serum TNFα” value in [9] (7 mg/kg i.v. daily day 1-5, serum on day 11, ELISA, vehicle cohort 11 μg/mL) amounted to 298 µg/mL. Also, in series [9] (7 mg/kg i.v. daily for 5 days, athymic nude mice), the “tolerability by lack of body weight loss” value is “well tolerated”. The “tolerable dose, daily i.v. dosing” value in series [9] (athymic nude mice) is “at least 7 mg/kg”. In addition, in series [10], the “human (PBMC and NK cells) effector cell killing of target cells through ADCC” value was “enhance”.
